Test results published in US5698391A, “Methods for synthetic unrandomization of oligomer fragments” (ISIS Pharmaceuticals, Inc., priority 1994, dated 1997).

The substances below were run on HIV gag-pol stem loop (assay: Gel shift, oligonucleotide set binding to HIV gag-pol triple strand). Details: pH 5, 100 mM NaCl, 2 mM MgCl2, 1 mM spermidine.
From the text: Binding to double stranded DNA or RNA is possible by formation of a three stranded complex, with the incoming third strand binding in the major groove of the duplex RNA or DNA. FIG. 6 illustrates a double stranded RNA structure from HIV known as the gag-pol stem loop (Vickers and Ecker, Nucleic Acids Research). One of the limitations in the design of triple strand interactions is the need to have a long stretch of homopurines as a target. The 3' (right) side of the gag-pol stem loop is homopurine except for a pair of cytosines near the bottom of the stem. To determine the best oligonucleotide to bind to the gag-pol stem loop, a group of RNA oligonucleotide sets was designed to bind to the purine-rich strand of the gag-pol stem-loop by Hoogstein base pairing and prepared in accordance with Examples 2 and 6. Binding to the gag-pol stemloop was measured by gel shift analysis as previously described in Example 8 with the following modifications: the radiolabeled gag-pol RNA was incubated with the oligonucleotide in 100 mM NaCl, 25 mM TRIS acetate (pH 5), 2 mM MgCl2, 1 mM spermidine. The gel was 15% acrylamide with 50 mM NaCl and 2 mM MgCl2 added to the running buffer.

**Q.** With “B2: RNA oligonucleotide, SEQ ID NO: 11 (CCCUUCCCGUC; RNA, backbone not given here) [Set B2]” as the substance, how does the Kd read?
**A.** 10 µM

**Q.** With “A2: RNA oligonucleotide, SEQ ID NO: 10 (CCCUUCCCAUC; RNA, backbone not given here) [Set A2]” as the substance, how does the Kd read?
**A.** 10 µM

**Q.** “D2: RNA oligonucleotide, SEQ ID NO: 13 (CCCUUCCCUUC; RNA, backbone not given here) [Set D2]” was tested. Which Kd did it give?
**A.** 10 µM

**Q.** “C2: RNA oligonucleotide, SEQ ID NO: 12 (CCCUUCCCCUC; RNA, backbone not given here) [Set C2]” was tested. Which Kd did it give?
**A.** 1 µM
